GI50 and TGI data for seven compounds are collected here from PubChem BioAssay (NCI).

Test systems include OVCAR-8 ovarian; SK-OV-3 ovarian; KM12 colon; MALME-3M melanoma; MCF7 breast; RXF 393 renal; HT29 colon; MOLT-4 leukemia; SF-539 CNS; TK-10 renal.
What all share (experiment): growth of human tumour cells (NCI), 48 h

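Interpolation was linear, between the two tested concentrations surrounding the appropriate level; five concentrations were tested over 48 hours in 96-well plates. Abbreviation: GI50, concentration required for 50% inhibition of growth. TGI: concentration producing complete growth inhibition.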

For the compound `CCCCC[C@H]1C/C=C2/C(=O)C=C[C@@H]2C/C=C\CCCC(=O)O[C@@H](CCCCC)C/C=C2/C(=O)C=C[C@@H]2C/C=C\CCCC(=O)O1`, the GI50 with OVCAR-8 ovarian was 112 nM; in the test with SK-OV-3 ovarian, 824 nM; in the test on KM12 colon it was 382 nM; in the test with MALME-3M melanoma, 338 nM; in the test with MCF7 breast, 119 nM; in the test with RXF 393 renal it was 193 nM. Moreover, the GI50 in the test on HT29 colon was 218 nM; with MOLT-4 leukemia, 82.8 nM; in the test with SF-539 CNS it was 423 nM; in the test with TK-10 renal, 582 nM. For the same compound, the TGI was 2700 nM in the test with OVCAR-8 ovarian; 2390 nM in the test on SK-OV-3 ovarian; 786 nM in the test with KM12 colon; 885 nM in the test on MALME-3M melanoma; 484 nM with MCF7 breast; 526 nM with RXF 393 renal. For the same compound, the TGI is 822 nM with HT29 colon, 898 nM with MOLT-4 leukemia, 1090 nM in the test on SF-539 CNS and 1310 nM with TK-10 renal.
With `O=[N+]([O-])c1ccc2c(c1)Cc1cc(N=Cc3ccc4c(c3)OCO4)ccc1-2`, the TGI in the test on OVCAR-8 ovarian, with SK-OV-3 ovarian, in the test on KM12 colon, with MALME-3M melanoma, in the test on MCF7 breast and in the test on RXF 393 renal was > 100000 nM in each case. For the same compound, the TGI in the test with HT29 colon, in the test on MOLT-4 leukemia, in the test with SF-539 CNS and with TK-10 renal was > 100000 nM in each case.
On to `Cc1cc(Cl)ccc1Nc1nc(C(F)(F)F)ccc1C(=O)N/N=C/c1ccc(Cl)cc1`, for which the GI50 with OVCAR-8 ovarian was 3160 nM; in the test on SK-OV-3 ovarian, 1690 nM; with KM12 colon, 2080 nM; with MALME-3M melanoma it was 2020 nM; in the test on MCF7 breast, 1550 nM; with RXF 393 renal it was 3080 nM. The GI50 is 3240 nM with HT29 colon, 750 nM with MOLT-4 leukemia, 1700 nM with SF-539 CNS and 1660 nM in the test with TK-10 renal. Moreover, the TGI is > 100000 nM in the test on OVCAR-8 ovarian; 5570 nM in the test with SK-OV-3 ovarian; 7240 nM with KM12 colon; 5510 nM in the test on MALME-3M melanoma; 4700 nM with MCF7 breast; 22200 nM in the test with RXF 393 renal. Also, the TGI in the test with HT29 colon is 10400 nM; in the test with MOLT-4 leukemia, 4350 nM; in the test on SF-539 CNS it was 3960 nM; in the test on TK-10 renal, 7010 nM.
With `C=C1/C(=C\C=C2/CCC[C@]3(C)[C@@H]([C@H](C)CCCC(C)(C)O)CC[C@@H]23)C[C@@H](OC(=O)CBr)C[C@@H]1O`, the GI50 was 2120 nM in the test on OVCAR-8 ovarian; 14900 nM with SK-OV-3 ovarian; 400 nM with KM12 colon; 184 nM with MALME-3M melanoma; 1380 nM in the test on MCF7 breast; 2600 nM in the test on RXF 393 renal. For the same compound, the GI50 is 1150 nM in the test with HT29 colon, 371 nM with MOLT-4 leukemia, 212 nM in the test on SF-539 CNS and 6880 nM in the test on TK-10 renal. The TGI in the test on OVCAR-8 ovarian worked out at 30500 nM; with SK-OV-3 ovarian, 29500 nM; in the test on KM12 colon, 3030 nM; in the test on MALME-3M melanoma, 674 nM; with MCF7 breast, 5740 nM; in the test on RXF 393 renal, 7410 nM. Further, the TGI in the test on HT29 colon was 10500 nM; with MOLT-4 leukemia it was 2050 nM; with SF-539 CNS, 629 nM; in the test on TK-10 renal, 21600 nM.
In the case of `COc1ccc(C2CC(C)(O)Oc3cc4c(cc32)OCO4)cc1` (stereo unspecified), the TGI with OVCAR-8 ovarian is > 100000 nM; in the test on SK-OV-3 ovarian, > 100000 nM; in the test with KM12 colon, > 100000 nM; with MALME-3M melanoma, > 100000 nM; in the test on MCF7 breast, > 100000 nM; with RXF 393 renal, > 39000 nM. Besides, the TGI was > 82600 nM with HT29 colon, 88600 nM in the test with MOLT-4 leukemia, > 100000 nM in the test with SF-539 CNS and > 100000 nM in the test on TK-10 renal. In addition, the GI50 in the test on SK-OV-3 ovarian was 43200 nM.
For the compound `COc1cccc(-n2nc(C)c3c(N/N=C(\C)c4ccncc4)ncnc32)c1`, the GI50 in the test on OVCAR-8 ovarian was > 25000 nM; in the test on SK-OV-3 ovarian, 13400 nM; in the test with KM12 colon, > 25000 nM; in the test on MALME-3M melanoma, 10300 nM; in the test on MCF7 breast, > 25000 nM; in the test on RXF 393 renal it was 8150 nM. In addition, the GI50 in the test with HT29 colon is > 25000 nM; in the test with MOLT-4 leukemia it was > 25000 nM; in the test with SF-539 CNS, 22800 nM; with TK-10 renal, 10200 nM. For the same compound, the TGI in the test with OVCAR-8 ovarian, with SK-OV-3 ovarian, in the test with KM12 colon, with MALME-3M melanoma, in the test on MCF7 breast and with RXF 393 renal was > 25000 nM in each case. The TGI in the test with HT29 colon, with MOLT-4 leukemia, in the test on SF-539 CNS and in the test on TK-10 renal was > 25000 nM each time.
For the compound `COC(=O)[C@@]12OC[C@]34[C@H]([C@@H](O)[C@@H]1O)[C@@]1(C)[C@H](O)C(=O)C=C(C)[C@@H]1C[C@H]3OC(=O)C(OC(C)=O)[C@@H]24` (stereo partly specified), the GI50 in the test with OVCAR-8 ovarian was 37.1 nM; with SK-OV-3 ovarian, 52.2 nM; in the test on KM12 colon, 30 nM; in the test on MALME-3M melanoma, 15.1 nM; with MCF7 breast it was 21.4 nM; in the test with RXF 393 renal it was 25.3 nM. Also, the GI50 was 30.3 nM with HT29 colon, < 14.5 nM in the test on MOLT-4 leukemia, 21.8 nM in the test with SF-539 CNS and 37.4 nM in the test with TK-10 renal. For the same compound, the TGI with OVCAR-8 ovarian was determined as 266 nM; in the test with SK-OV-3 ovarian, 1120 nM; in the test with KM12 colon, 136 nM; with MALME-3M melanoma it was 46.6 nM; with MCF7 breast, 70.1 nM; in the test with RXF 393 renal it was 67.3 nM. For the same compound, the TGI with HT29 colon was determined as 136 nM; in the test with MOLT-4 leukemia, 48.7 nM; in the test on SF-539 CNS, 61.2 nM; in the test on TK-10 renal, 197 nM.
